Test results published in patent US5807671A (priority 1995, dated 1998).

How the values were obtained:
BuChE L^286 Q = type: biochemical, human
BuChE L^286 R = type: biochemical, human
BuChE F^329 Q = type: biochemical, human
BuChE D^70 G + S^425 P = type: biochemical, human
BuChE F^329 D = type: biochemical, human
BuChE D^70 G + Y^114 H = type: biochemical, human
[1] = molecular target: diisopropylphosphoryl-BuChE (Homo sapiens, UniProt P06276); assay: biochemical
BuChE D^70 G = type: biochemical, human
BuChE F^329 C = type: biochemical, human
[2] = molecular target: purified diethylphosphoryl-BuChE; conditions: cited from earlier work
BuChE L^286 D = type: biochemical, human
[3] = human, in vivo, iv; cited from earlier work
BuChE F^329 R = type: biochemical, human
[4] = tested on: BuChE D^70 G + Y^114 H + S^425 P; type: biochemical, human
[5] = molecular target: diisopropylphosphoryl-Chimera; type: biochemical, human
[6] = molecular target: diisopropylphosphoryl-AChE (E5) (Homo sapiens, UniProt P22303)
diisopropylphosphoryl-AChE (E5), sequence (P22303-4 with tags, fused parts or gaps limits assumed): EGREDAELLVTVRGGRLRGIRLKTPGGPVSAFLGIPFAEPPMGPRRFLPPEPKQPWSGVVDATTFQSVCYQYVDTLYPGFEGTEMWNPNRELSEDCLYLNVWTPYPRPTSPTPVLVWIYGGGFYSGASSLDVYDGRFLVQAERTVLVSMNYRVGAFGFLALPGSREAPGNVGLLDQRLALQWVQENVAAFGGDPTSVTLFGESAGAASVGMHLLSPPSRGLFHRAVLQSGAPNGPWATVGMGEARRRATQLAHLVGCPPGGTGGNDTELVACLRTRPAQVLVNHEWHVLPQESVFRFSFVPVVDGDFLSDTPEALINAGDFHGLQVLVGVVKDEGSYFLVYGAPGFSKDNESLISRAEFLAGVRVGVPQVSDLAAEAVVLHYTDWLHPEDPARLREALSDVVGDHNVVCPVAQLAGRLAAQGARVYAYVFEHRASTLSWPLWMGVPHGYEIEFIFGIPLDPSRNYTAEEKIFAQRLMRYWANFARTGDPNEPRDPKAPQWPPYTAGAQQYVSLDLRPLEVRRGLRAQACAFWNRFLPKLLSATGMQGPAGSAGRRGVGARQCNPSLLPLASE

BuChE S^425 P = type: biochemical, human
[7] = molecular target: diisopropylphosphoryl-AChE (E6) (Homo sapiens, UniProt P22303)
diisopropylphosphoryl-AChE (E6), sequence (P22303 32-614): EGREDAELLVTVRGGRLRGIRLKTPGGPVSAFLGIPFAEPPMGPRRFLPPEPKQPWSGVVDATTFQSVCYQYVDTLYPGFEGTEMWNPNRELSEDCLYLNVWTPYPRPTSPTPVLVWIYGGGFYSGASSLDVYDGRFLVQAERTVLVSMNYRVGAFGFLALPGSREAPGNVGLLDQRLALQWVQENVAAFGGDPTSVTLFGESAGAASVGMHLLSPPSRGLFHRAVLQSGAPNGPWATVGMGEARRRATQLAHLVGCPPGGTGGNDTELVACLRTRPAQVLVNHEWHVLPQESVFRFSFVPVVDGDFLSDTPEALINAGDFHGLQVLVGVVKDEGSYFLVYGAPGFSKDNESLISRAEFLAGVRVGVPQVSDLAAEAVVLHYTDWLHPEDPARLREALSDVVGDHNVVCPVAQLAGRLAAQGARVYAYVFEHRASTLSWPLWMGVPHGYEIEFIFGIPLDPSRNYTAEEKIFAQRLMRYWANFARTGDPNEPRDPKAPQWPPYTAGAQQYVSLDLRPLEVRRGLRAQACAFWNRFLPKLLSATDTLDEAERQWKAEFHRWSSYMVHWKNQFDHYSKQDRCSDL

BuChE L^286 K = BuChE L^286 K (Homo sapiens, UniProt P06276, L314K); assay: biochemical; type: biochemical
BuChE L^286 K, sequence (P06276 29-602 L314K limits assumed): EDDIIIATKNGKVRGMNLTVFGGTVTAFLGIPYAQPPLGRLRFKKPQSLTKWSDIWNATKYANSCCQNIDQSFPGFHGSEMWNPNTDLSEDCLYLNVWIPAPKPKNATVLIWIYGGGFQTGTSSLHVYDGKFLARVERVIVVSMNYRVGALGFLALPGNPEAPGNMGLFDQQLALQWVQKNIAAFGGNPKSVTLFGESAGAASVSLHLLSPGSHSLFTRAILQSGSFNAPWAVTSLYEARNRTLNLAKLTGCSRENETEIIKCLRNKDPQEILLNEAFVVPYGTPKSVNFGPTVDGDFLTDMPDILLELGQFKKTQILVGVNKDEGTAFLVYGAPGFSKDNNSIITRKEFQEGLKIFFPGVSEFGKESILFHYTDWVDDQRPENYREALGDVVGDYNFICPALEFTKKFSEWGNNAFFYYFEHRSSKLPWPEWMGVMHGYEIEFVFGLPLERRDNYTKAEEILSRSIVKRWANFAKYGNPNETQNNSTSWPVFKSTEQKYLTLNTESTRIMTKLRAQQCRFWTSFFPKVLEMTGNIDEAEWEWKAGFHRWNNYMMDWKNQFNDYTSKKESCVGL

diisopropylphosphoryl-BuChE, sequence (P06276 29-602): as the sequence (P06276 29-602 L314K limits assumed) above, with K286L counted along it

For `C[n+]1ccccc1C=NO` [PAM, Pyridine-2-aldoxime methiodide], the “k'r × 10^3” value (BuChE L^286 Q) was 120 ± 20, the “k'r × 10^3” value (BuChE L^286 R) was 6 ± 3 and the “k'r × 10^3” value (BuChE F^329 Q) was 44 ± 15. For the same compound, the “k'r × 10^3” value (BuChE D^70 G + S^425 P) was 11, the “k'r × 10^3” value (BuChE F^329 D) was 8 ± 1 and the “k'r × 10^3” value (BuChE D^70 G + Y^114 H) was 12 ± 5. The Kd [1] was 300 µM, the “Kr × 10^3” value [1] was 220 ± 60 and the “k'r × 10^3” value [1] was 150 ± 30. The “pseudo-first order rate constant for reactivation of DFP-inhibited BuChE, higher than AChE” value [1] was 25 fold, the “k'r × 10^3” value (BuChE D^70 G) was 32 ± 4 and the “reactivation rate lower than wild-type BuChE” value (BuChE D^70 G) was 5 fold. The “k'r × 10^3” value (BuChE F^329 C) was 14 ± 2, the Kd [2] was 200 µM and the “k'r × 10^3” value (BuChE L^286 D) was 120 ± 30. For the same compound, the Cmax [3] was no more than 40 µM, the “k'r × 10^3” value (BuChE F^329 R) was 43 and the “k'r × 10^3” value [4] was 4 ± 1. The Kd [5] was 340 ± 130 µM, the “Kr × 10^3” value [5] was 48 ± 20 and the “k'r × 10^3” value [5] was 40 ± 18. For the same compound, the “reactivation rate constant lower than that of native BuChE” value [5] was 5 fold, the “Kr × 10^3” value [6] was 10 ± 5 and the “k'r × 10^3” value [6] was 8 ± 3. For the same compound, the “k'r × 10^3” value (BuChE S^425 P) was 134 ± 8, the “Kr × 10^3” value [7] was 7 ± 3 and the “k'r × 10^3” value [7] was 6 ± 2. The Kd (BuChE L^286 K) was greater than 5000 µM, the “Kr × 10^3” value (BuChE L^286 K) was 35 ± 27 and the “k'r × 10^3” value (BuChE L^286 K) was 4 ± 1. The “reduction in the pseudo-first order rate constant for reactivation” value (BuChE L^286 K) was 40 fold.
